Data set [1] has as its target Transient receptor potential cation channel subfamily V member 1 (Homo sapiens, UniProt Q8NER1). The data set is described as follows: Antagonist activity at human TRPV1 expressed in CHO cells assessed as inhibition of capsaicin-induced Ca2+ influx incubated for 30 mins by FLIPR method. The class given is cell-based.
The nature of data set [2]: Toxicity in rat assessed as increase in body temperature at 30 mg/kg, po measured for 180 mins by electric probe thermometer analysis. Format: organism-based. To be noted: in vivo, 3 h.
Data set [3] in a line: Toxicity in rat assessed as effect on body temperature at 10 to 100 mg/kg, po measured for 120 mins by electric probe thermometer analysis. Format: organism-based. To be noted: in vivo, 2 h, dose 10-100 mg/kg.
Data set [4] in a line: Half life in Sprague-Dawley rat at 10 mg/kg, iv measured after 12 hrs by UPLC-QTOF/MS analysis. Format: ADME, organism-based. To be noted: in vivo.
Data set [5] is described as follows: Elimination rate constant half life (k10) in Sprague-Dawley rat at 20 mg/kg, po measured after 12 hrs by UPLC-QTOF/MS analysis. The class given is ADME, organism-based. To be noted: in vivo, read-out: beta t1/2 (converted).
Data set [6] in a line: Volume of distribution in Sprague-Dawley rat at 20 mg/kg, po measured after 12 hrs post dose by UPLC-QTOF/MS analysis. Format: ADME, organism-based. To be noted: in vivo.
Data set [7] is described as follows: Tmax in Sprague-Dawley rat at 20 mg/kg, po measured after 12 hrs by UPLC-QTOF/MS analysis. The class given is ADME, organism-based. To be noted: in vivo.
The nature of data set [8]: Cmax in Sprague-Dawley rat at 20 mg/kg, po measured after 12 hrs by UPLC-QTOF/MS analysis. Format: ADME, organism-based. Details: dose 20 mg/kg, time 12 hrs, route po. To be noted: in vivo.
The nature of data set [9]: Clearance in Sprague-Dawley rat at 10 mg/kg, iv measured after 12 hrs by UPLC-QTOF/MS analysis. The class given is ADME, organism-based. To be noted: in vivo.
Data set [10] in a line: Clearance in Sprague-Dawley rat at 20 mg/kg, po measured after 12 hrs by UPLC-QTOF/MS analysis. The class given is ADME, organism-based. To be noted: in vivo.
Data set [11] is described as follows: AUC (0 to infinity) in Sprague-Dawley rat at 10 mg/kg, iv by UPLC-QTOF/MS analysis. To be noted: in vivo. The class given is ADME, organism-based. Details: time infinity, dose 10 mg/kg, route iv.
Data set [12] can be described thus: AUC (0 to infinity) in Sprague-Dawley rat at 20 mg/kg, po by UPLC-QTOF/MS analysis. Format: ADME, organism-based. Set-up: time infinity, dose 20 mg/kg, route po. To be noted: in vivo.
The nature of data set [13]: MRT in Sprague-Dawley rat at 10 mg/kg, iv measured after 12 hrs by UPLC-QTOF/MS analysis. To be noted: in vivo. Format: ADME, organism-based.
A short description of data set [14]: MRT in Sprague-Dawley rat at 20 mg/kg, po measured after 12 hrs by UPLC-QTOF/MS analysis. Format: ADME, organism-based. To be noted: in vivo.
Data set [15] is described as follows: Oral bioavailability in Sprague-Dawley rat at 20 mg/kg measured after 12 hrs by UPLC-QTOF/MS analysis. The class given is ADME, organism-based. To be noted: in vivo.
Data set [16] in a line: Drug concentration in rat brain at 10 mg/kg, iv measured after 0.5 hrs by HPLC analysis. The class given is ADME, organism-based. To be noted: read-out: Ct.
The nature of data set [17]: Drug concentration in rat plasma at 10 mg/kg, iv measured after 0.5 hrs by HPLC analysis. The class given is ADME, organism-based.
Data set [18] can be described thus: Ratio of drug level in brain to plasma in rat at 10 mg/kg, iv measured after 0.5 hrs by HPLC analysis. The class given is ADME, organism-based. To be noted: read-out: BPR.
Data set [19] can be described thus: Aqueous solubility of compound at pH 7.4 incubated for 2 hrs by LC-UV/MS analysis. Format: physicochemical. To be noted: buffer.
Data set [20] addresses T1, Transient receptor potential cation channel subfamily V member 3 (Homo sapiens, UniProt Q8NET8).
T1 sequence (Q8NET8 whole entry): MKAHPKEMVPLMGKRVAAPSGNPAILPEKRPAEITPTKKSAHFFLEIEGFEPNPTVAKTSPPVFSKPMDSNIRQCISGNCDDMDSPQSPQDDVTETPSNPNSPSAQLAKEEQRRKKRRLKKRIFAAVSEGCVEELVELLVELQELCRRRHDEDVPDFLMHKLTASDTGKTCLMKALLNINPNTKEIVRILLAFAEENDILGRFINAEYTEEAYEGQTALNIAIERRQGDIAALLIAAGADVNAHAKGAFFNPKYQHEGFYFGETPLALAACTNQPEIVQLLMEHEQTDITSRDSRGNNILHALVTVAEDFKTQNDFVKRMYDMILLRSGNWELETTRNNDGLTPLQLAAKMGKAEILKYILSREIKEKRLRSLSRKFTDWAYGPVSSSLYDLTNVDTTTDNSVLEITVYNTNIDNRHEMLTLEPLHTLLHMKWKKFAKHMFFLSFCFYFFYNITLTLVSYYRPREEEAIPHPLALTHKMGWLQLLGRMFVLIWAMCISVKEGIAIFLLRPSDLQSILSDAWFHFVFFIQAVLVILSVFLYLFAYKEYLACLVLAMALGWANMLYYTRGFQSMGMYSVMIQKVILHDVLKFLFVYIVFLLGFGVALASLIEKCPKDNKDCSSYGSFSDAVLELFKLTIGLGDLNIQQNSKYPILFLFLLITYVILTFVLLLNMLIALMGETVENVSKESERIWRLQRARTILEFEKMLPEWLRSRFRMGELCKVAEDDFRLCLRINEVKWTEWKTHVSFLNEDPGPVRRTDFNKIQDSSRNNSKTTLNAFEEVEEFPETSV
The data set is described as follows: Antagonist activity against human TRPV3 expressed in HEK293 cells assessed as inhibition of 2-APb induced intracellular calcium accumulation incubated for 30 mins by FLIPR assay. The class given is cell-based. (Calcium assays in cells follow changes in intracellular calcium, usually with a dye or a luminescent sensor.)

The target of data set [21] is Transient receptor potential cation channel subfamily A member 1 (Homo sapiens, UniProt O75762). Description: Antagonist activity against human TRPA1 expressed in HEK293 cells assessed as inhibition of AITC-induced intracellular calcium accumulation incubated for 30 mins by FLIPR assay. Format: cell-based.
Transient receptor potential cation channel subfamily A member 1, sequence (O75762 whole entry): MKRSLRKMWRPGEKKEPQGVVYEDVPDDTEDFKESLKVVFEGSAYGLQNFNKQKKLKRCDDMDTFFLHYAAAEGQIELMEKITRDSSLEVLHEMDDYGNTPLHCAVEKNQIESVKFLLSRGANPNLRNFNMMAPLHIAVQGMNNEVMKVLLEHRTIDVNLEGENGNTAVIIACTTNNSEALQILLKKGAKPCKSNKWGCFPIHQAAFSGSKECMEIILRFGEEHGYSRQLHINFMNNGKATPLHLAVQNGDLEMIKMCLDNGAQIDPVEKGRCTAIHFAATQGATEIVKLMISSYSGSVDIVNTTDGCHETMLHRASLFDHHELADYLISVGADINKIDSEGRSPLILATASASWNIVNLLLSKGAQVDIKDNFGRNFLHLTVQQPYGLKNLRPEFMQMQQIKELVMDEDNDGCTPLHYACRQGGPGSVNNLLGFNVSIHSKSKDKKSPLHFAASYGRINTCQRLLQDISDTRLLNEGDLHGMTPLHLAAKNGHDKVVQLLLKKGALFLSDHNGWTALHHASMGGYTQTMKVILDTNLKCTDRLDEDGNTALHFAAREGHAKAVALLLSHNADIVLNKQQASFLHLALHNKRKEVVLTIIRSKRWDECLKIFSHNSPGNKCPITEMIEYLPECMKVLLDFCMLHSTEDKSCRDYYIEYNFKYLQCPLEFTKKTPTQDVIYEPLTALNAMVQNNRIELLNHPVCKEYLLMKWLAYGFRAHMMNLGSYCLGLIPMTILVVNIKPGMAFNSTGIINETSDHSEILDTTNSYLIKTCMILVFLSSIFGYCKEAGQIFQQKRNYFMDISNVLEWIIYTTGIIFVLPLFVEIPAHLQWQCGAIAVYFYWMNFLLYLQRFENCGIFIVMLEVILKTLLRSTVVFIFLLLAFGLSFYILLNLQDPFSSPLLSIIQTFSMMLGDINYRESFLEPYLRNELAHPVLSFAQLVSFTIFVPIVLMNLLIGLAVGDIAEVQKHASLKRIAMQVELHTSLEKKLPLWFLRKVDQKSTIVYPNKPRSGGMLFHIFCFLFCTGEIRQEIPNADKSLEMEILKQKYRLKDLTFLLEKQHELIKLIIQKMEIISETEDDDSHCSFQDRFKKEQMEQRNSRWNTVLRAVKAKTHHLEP
Data set [22] in a line: Elimination rate constant (K10) in Sprague-Dawley rat at 10 mg/kg, iv measured after 12 hrs by UPLC-QTOF/MS analysis. To be noted: in vivo. Format: ADME, organism-based.
Data set [23] can be described thus: Elimination rate constant (K10) in Sprague-Dawley rat at 20 mg/kg, po measured after 12 hrs by UPLC-QTOF/MS analysis. Format: ADME, organism-based. To be noted: in vivo.
Data set [24] concerns the target Transient receptor potential cation channel subfamily M member 8 (Homo sapiens, UniProt Q7Z2W7). The data set is described as follows: Antagonist activity against human TRPM8 expressed in HEK293 cells assessed as inhibition of […]-gated currents by whole cell patch clamp electrophysiology. Format: cell-based.

SMILES strings stand for the structures. ≈ marks a conversion by molar mass, not a printed value.

Transient receptor potential cation channel subfamily V member 1, sequence (Q8NER1 whole entry): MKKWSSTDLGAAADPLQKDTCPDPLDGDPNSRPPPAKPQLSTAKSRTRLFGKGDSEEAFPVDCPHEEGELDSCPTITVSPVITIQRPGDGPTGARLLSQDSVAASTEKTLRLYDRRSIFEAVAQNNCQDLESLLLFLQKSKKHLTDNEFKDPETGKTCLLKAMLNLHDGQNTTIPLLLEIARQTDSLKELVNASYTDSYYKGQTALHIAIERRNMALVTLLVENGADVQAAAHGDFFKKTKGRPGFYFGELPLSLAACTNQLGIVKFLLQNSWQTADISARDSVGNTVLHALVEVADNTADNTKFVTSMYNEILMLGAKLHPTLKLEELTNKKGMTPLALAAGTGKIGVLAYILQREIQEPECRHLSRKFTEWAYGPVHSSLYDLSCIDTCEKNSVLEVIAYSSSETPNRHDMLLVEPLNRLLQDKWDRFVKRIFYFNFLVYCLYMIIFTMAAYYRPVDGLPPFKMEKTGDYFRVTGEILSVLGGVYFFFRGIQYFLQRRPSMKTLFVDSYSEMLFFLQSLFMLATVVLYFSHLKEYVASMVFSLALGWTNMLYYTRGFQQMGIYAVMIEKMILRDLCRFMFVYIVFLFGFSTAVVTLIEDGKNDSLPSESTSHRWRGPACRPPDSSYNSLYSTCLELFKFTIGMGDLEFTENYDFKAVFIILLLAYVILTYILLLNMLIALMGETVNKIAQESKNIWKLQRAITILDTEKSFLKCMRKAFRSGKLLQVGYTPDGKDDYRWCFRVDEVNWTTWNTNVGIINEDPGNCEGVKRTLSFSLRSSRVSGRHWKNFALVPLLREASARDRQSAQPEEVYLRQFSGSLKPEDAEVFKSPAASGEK
Transient receptor potential cation channel subfamily M member 8, sequence (Q7Z2W7 whole entry): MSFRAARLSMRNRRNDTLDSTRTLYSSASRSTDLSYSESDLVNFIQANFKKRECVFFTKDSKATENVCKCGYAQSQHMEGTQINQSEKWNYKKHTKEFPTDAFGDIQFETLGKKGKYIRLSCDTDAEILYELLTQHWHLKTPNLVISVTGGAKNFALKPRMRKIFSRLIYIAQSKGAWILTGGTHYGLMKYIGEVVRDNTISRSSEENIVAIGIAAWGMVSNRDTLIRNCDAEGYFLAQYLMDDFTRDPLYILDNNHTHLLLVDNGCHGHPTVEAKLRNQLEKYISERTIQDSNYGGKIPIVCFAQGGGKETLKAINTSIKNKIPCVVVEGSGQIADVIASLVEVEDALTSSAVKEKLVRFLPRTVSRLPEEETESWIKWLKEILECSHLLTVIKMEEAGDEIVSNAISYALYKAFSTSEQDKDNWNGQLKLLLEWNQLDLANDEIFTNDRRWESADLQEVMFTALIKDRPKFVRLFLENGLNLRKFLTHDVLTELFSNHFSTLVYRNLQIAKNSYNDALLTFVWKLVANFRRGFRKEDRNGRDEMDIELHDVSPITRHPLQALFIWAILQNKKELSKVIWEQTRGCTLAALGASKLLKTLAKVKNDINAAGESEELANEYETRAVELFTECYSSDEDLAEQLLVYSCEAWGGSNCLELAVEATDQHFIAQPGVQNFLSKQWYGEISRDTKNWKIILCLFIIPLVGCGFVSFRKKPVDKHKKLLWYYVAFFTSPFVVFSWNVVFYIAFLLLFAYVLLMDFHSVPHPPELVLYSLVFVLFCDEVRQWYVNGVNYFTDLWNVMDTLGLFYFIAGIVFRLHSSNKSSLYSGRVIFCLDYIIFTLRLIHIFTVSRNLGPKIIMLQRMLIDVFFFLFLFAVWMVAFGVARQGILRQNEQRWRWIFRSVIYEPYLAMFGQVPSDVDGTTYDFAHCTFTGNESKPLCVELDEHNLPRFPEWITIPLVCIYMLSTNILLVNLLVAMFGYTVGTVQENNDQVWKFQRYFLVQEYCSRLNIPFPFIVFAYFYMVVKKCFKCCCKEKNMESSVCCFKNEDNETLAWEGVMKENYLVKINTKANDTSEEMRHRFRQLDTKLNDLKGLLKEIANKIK

For orientation: IC50 means the concentration that inhibits the measured activity by half. `O=C(Nc1cccc2cnccc12)N1CCC[C@H]1c1nc(-c2cccc(F)c2)cs1`: in [1], the IC50 came to 80.6 nM.

As a reminder, the Tmax is the time at which the peak concentration occurs. In general, Cmax refers to the maximum level reached in the sampled fluid or tissue. The AUC is concentration integrated over time. The term MRT denotes the average time that molecules of a dose stay in the body. By bioavailability is commonly meant the share of a dose that reaches the circulation, judged against a reference dose that is usually intravenous. High values mean much systemic uptake, low ones little systemic uptake. One may read the solubility as the concentration that dissolves in the medium under given conditions. Read a low solubility as a poorly soluble substance. For the compound `CC(C)c1cccc(NC(=O)N2CCC[C@H]2c2ncc(-c3ccccc3)s2)c1`, the IC50 in data set [1] was 2.66 nM; in data set [20], greater than 100000 nM; in data set [21], greater than 100000 nM. Further, the Activity entry in [2] and in [3] was “Non-Toxic” each time. Moreover, the figures for the half-life in [4] and in data set [5] were 6.36 min and 31.6 min, respectively. The compound further showed a Vd in [6] of 16 L/kg. In addition, the Tmax in [7] was determined as 42.7 min. Moreover, the peak concentration (Cmax) in data set [8] stood at 311 ng/mL. For the same compound, the results for the clearance in data set [9] and in data set [10] were 400 mL/min/kg and 367 mL/min/kg, respectively. In addition, the exposure (AUC) in data set [11] came out at 495.955 ng·h/mL; in data set [12] it was 598.873 ng·h/mL. In addition, the MRT worked out at 9.18 min in data set [13] and 85.6 min in data set [14]. In data set [15], this compound registered a bioavailability of 60%. Moreover, the figures for the concentration at 0.5 h in data set [16] and in data set [17] were 2310 ng/g and 1400 ng/g, respectively. Further, the Kp at 0.5 h in data set [18] stood at 1.66. Besides, the concentration in solution in data set [19] (solubility at 2 h) came to 26 µg/mL (≈ 66.4 µM). For the same compound, the results for the k el at 12 h in [22] and in data set [23] were 0.00335 s⁻¹ and 0.000315 s⁻¹, respectively.

Regarding `O=C(Nc1cccc2cnccc12)N1CCC[C@H]1c1nc(-c2ccccc2)cs1`, the IC50 in data set [1] amounted to 67.6 nM.

On to `CC(C)c1ccccc1NC(=O)N1CCC[C@H]1c1ncc(-c2ccccc2)s1`, for which the IC50 in data set [1] came to 5.32 nM.

For `O=C(Nc1ccccc1[N+](=O)[O-])N1CCC[C@H]1c1ncc(-c2ccccc2)s1`, the IC50 in [1] came out at 12.4 nM.

`COc1ccccc1NC(=O)N1CCC[C@H]1c1nc(-c2ccc(F)cc2)cs1`: in data set [1], the concentration for half-maximal inhibition (IC50) was 5.71 nM. Besides, the Activity entry in data set [2] is on record as “Toxic”.

In the case of `O=C(Nc1cccc2cnccc12)N1CCC[C@H]1c1nc(-c2ccc(F)cc2)cs1`, in [1], the IC50 is 24.3 nM.

As for `O=C(Nc1ccc(Cl)cc1)N1CCC[C@H]1c1nc(-c2ccc(F)cc2)cs1`, the IC50 in data set [1] came to 10.7 nM.

Consider `O=C(Nc1ccc(F)cc1)N1CCC[C@H]1c1nc(-c2ccc(F)cc2)cs1`, for which, in [1], the IC50 came out at 24.6 nM.

As to `Cc1ccc(C)c(NC(=O)N2CCC[C@H]2c2nc(-c3ccccc3)cs2)c1`, the IC50 in data set [1] was determined as 44.4 nM.

For the compound `O=C(Nc1ccc(F)cc1)N1CCC[C@H]1c1nc(-c2ccccc2)cs1`, the IC50 in [1] amounted to 31.6 nM.

`Cc1ccc(NC(=O)N2CCC[C@H]2c2ncc(-c3ccccc3)s2)c([N+](=O)[O-])c1`: the half-maximal inhibitory concentration (IC50) in data set [1] worked out at 23.9 nM.

Turning to `O=C(Nc1ccccc1Br)N[C@@H]1CCN(c2ccc(C(F)(F)F)cn2)C1` [SB-705498], the IC50 worked out at 9.24 nM in [1] and 1600 nM in [24]. In [2], the Activity entry is recorded as “Non-Toxic”. The Kp at 0.5 h in data set [18] was determined as 0.5.

Values taken from ChEMBL document CHEMBL5154788 (Eur J Med Chem, 2022).
